One data set deals with DU-145. Description: Antiproliferative activity against human DU-145 cells assessed as reduction in cel viability after 72 hrs by MTT assay. The data set is classed as functional, cell-based. The following applies: DU-145, 72 h.
For data set [1], the system named is LNCaP. The data set is described as follows: Antiproliferative activity against human LNCaP cells assessed as reduction in cel viability after 72 hrs by MTT assay. The data set is classed as functional, cell-based.
Data set [2] is described as follows: Stability in human liver microsomes assessed as parent compound remaining at 10 uM. It is filed as ADME, Microsome. The following applies: read-out: Stabilty.
For data set [3], the system named is LNCaP. The data set is described as follows: Antitumour activity against human LNCaP cells xenografted in BALB/c nude mouse assessed as reduction in tumour weight at 45 mg/kg, po administered daily for 21 days relative to control. The data set is classed as functional. The following applies: time 21 day.
The nature of data set [4]: Antagonist activity at GABAA receptor (unknown origin) by radioligand binding assay.
The nature of data set [5]: Half life in human liver microsomes at 10 uM. The data set is classed as ADME, Microsome.
Data set [6] deals with LNCaP. Description: Antitumour activity against human LNCaP cells xenografted in BALB/c nude mouse assessed as decrease in PSA level at 45 mg/kg, po administered daily for 21 days by ELISA relative to control. The data set is classed as functional. Also noted: scale not given: the % may be the effect or the level left. The following applies: time 21 day.

Data on 53 compounds can be found in ChEMBL document CHEMBL4680224, “Discovery of pyridine tetrahydroisoquinoline thiohydantoin derivatives with low blood-brain barrier penetration as the androgen receptor antagonists” (Eur J Med Chem, 2020).

Turning to `COC(=O)c1cc2c(cc1F)CC1C(=O)N(c3cnc(C#N)c(C(F)(F)F)c3)C(=S)N1C2` (stereo unspecified), the IC50 in the data set with DU-145 came to 86.2 µM; in the data set on LNCaP [1], 55.5 µM.
Regarding `COC(=O)c1ccc2c(c1)CN1C(=S)N(c3cnc(C#N)c(C(F)(F)F)c3)C(=O)C1C2` (stereo unspecified), the IC50 is 75.5 µM in the data set with DU-145 and 58.4 µM in the data set with LNCaP [1].
In the same order, the values of `CC(=O)Nc1ccc2c(c1)N1C(=S)N(c3cnc(C#N)c(C(F)(F)F)c3)C(=O)C1CC2` (stereo unspecified) are greater than 100 µM and 89.7 µM.
In the same order, the values of `CCC(=O)Nc1ccc2c(c1)CN1C(=S)N(c3cnc(C#N)c(C(F)(F)F)c3)C(=O)C1C2` (stereo unspecified) are 81.1 µM and 22.9 µM.
On the same counts, the results for `CCOC(=O)Nc1ccc2c(c1)N1C(=S)N(c3cnc(C#N)c(C(F)(F)F)c3)C(=O)C1CC2` (stereo unspecified) are 90.3 µM and 35.7 µM.
For `CCCCNC(=O)c1ccc2c(c1)CN1C(=S)N(c3cnc(C#N)c(C(F)(F)F)c3)C(=O)C1C2` (stereo unspecified), the IC50 in the data set with DU-145 was found to be 89.4 µM; with LNCaP [1] it was 11.6 µM.
In the same order, the values of `CC(CO)NC(=O)c1ccc2c(c1)CN1C(=S)N(c3cnc(C#N)c(C(F)(F)F)c3)C(=O)C1C2` (stereo unspecified) are 88 µM and 44.9 µM.
Take `CC(=O)Nc1ccc2c(c1)CCC1C(=O)N(c3cnc(C#N)c(C(F)(F)F)c3)C(=S)N21` (stereo unspecified): the figures for the IC50 in the data set on DU-145 and in the data set on LNCaP [1] were greater than 100 µM and 41.2 µM, respectively.
On the same counts, the results for `COc1c(Br)cc2c(c1Br)CN1C(=S)N(c3cnc(C#N)c(C(F)(F)F)c3)C(=O)C1C2` (stereo unspecified) are 96.3 µM and 85.9 µM.
Take `CS(=O)(=O)Nc1ccc2c(c1)CN1C(=S)N(c3cnc(C#N)c(C(F)(F)F)c3)C(=O)C1C2` (stereo unspecified): the concentration for half-maximal inhibition (IC50) in the data set with DU-145 is greater than 100 µM; in the data set with LNCaP [1] it was 90.2 µM.
As for `N#Cc1ncc(N2C(=O)C3Cc4ccccc4CN3C2=S)cc1C(F)(F)F` (stereo unspecified), the IC50 in the data set on DU-145 was greater than 100 µM; with LNCaP [1] it was 21.6 µM.
On the same counts, the results for `N#Cc1ncc(N2C(=O)C3Cc4ccc(C(=O)O)cc4CN3C2=S)cc1C(F)(F)F` (stereo unspecified) are greater than 100 µM and greater than 100 µM.
For `CNC(=O)c1cc2c(cc1F)CC1C(=O)N(c3cnc(C#N)c(C(F)(F)F)c3)C(=S)N1C2` (stereo unspecified), the IC50 in the data set with DU-145 came out at 67.4 µM; in the data set with LNCaP [1], 43.8 µM.
`N#Cc1ncc(N2C(=O)C3Cc4ccc([N+](=O)[O-])cc4CN3C2=S)cc1C(F)(F)F` (stereo unspecified): the IC50 in the data set on DU-145 is greater than 100 µM; in the data set on LNCaP [1] it was 75.7 µM.
On the same counts, the results for `CCCC(=O)Nc1ccc2c(c1)CN1C(=S)N(c3cnc(C#N)c(C(F)(F)F)c3)C(=O)C1C2` (stereo unspecified) are greater than 100 µM and 34.2 µM.
On the same counts, the results for `CC(=O)Nc1ccc2c(c1)CN1C(=S)N(c3cnc(C#N)c(C(F)(F)F)c3)C(=O)C1C2` (stereo unspecified) are 54.1 µM and 23.1 µM.
As for `CS(=O)(=O)Nc1ccc2c(c1)CCC1C(=O)N(c3cnc(C#N)c(C(F)(F)F)c3)C(=S)N21` (stereo unspecified), the IC50 in the data set on DU-145 and in the data set with LNCaP [1] was greater than 100 µM throughout.
On to `CCOc1ccc2c(c1)CN1C(=S)N(c3cnc(C#N)c(C(F)(F)F)c3)C(=O)C1C2` (stereo unspecified), for which the figures for the IC50 in the data set with DU-145 and in the data set with LNCaP [1] were 91.7 µM and 65.9 µM, respectively.
As to `CCCCNC(=O)c1cc2c(cc1F)CC1C(=O)N(c3cnc(C#N)c(C(F)(F)F)c3)C(=S)N1C2` (stereo unspecified), the IC50 in the data set with DU-145 was 93.8 µM; in the data set with LNCaP [1], 16.3 µM.
On the same counts, the results for `CCCC(=O)Nc1cc2c(cc1F)CC1C(=O)N(c3cnc(C#N)c(C(F)(F)F)c3)C(=S)N1C2` (stereo unspecified) are greater than 100 µM and 27.9 µM.
On the same counts, the results for `CCCCS(=O)(=O)Nc1ccc2c(c1)CN1C(=S)N(c3cnc(C#N)c(C(F)(F)F)c3)C(=O)C1C2` (stereo unspecified) are 84.4 µM and 84.1 µM.
Turning to `CNC(=O)c1ccc(N2C(=S)N(c3ccc(C#N)c(C(F)(F)F)c3)C(=O)C2(C)C)cc1F` [ENZALUTAMIDE], the IC50 in the data set on DU-145 was 49.3 µM; with LNCaP [1], 16.5 µM; in data set [4], 2.7 µM. Moreover, the remaining at 10 µM in data set [2] came to 90.3%. The TGI with LNCaP [3] is recorded as 68%. In data set [5], this compound gave a half-life at 10 µM of 6.69 h. In addition, the Activity in the data set with LNCaP [6] is reported as 57%.
In the case of `CCCC(=O)Nc1ccc2c(c1)CCC1C(=O)N(c3cnc(C#N)c(C(F)(F)F)c3)C(=S)N21` (stereo unspecified), the IC50 in the data set on DU-145 is 89.7 µM; in the data set on LNCaP [1], 32.5 µM.
As for `N#Cc1ncc(N2C(=O)C3Cc4ccc(C(=O)NC5CCCCC5)cc4CN3C2=S)cc1C(F)(F)F` (stereo unspecified), the figures for the IC50 in the data set on DU-145 and in the data set with LNCaP [1] were 92.4 µM and 72.3 µM, respectively.
On the same counts, the results for `CS(=O)(=O)Nc1cc2c(cc1F)CC1C(=O)N(c3cnc(C#N)c(C(F)(F)F)c3)C(=S)N1C2` (stereo unspecified) are greater than 100 µM and 79 µM.
On to `CC(O)CNC(=O)c1cc2c(cc1F)CC1C(=O)N(c3cnc(C#N)c(C(F)(F)F)c3)C(=S)N1C2` (stereo unspecified), for which the figures for the IC50 in the data set with DU-145 and in the data set with LNCaP [1] were 72.2 µM and 47.5 µM, respectively.
In the same order, the values of `CCC(=O)Nc1cc2c(cc1F)CC1C(=O)N(c3cnc(C#N)c(C(F)(F)F)c3)C(=S)N1C2` (stereo unspecified) are greater than 100 µM and 27.7 µM.
In the same order, the values of `N#Cc1ncc(N2C(=O)C3Cc4ccc(N)cc4CN3C2=S)cc1C(F)(F)F` (stereo unspecified) are greater than 100 µM and 44.7 µM.
In the same order, the values of `CCCCS(=O)(=O)Nc1ccc2c(c1)N1C(=S)N(c3cnc(C#N)c(C(F)(F)F)c3)C(=O)C1CC2` (stereo unspecified) are 83.9 µM and 48.7 µM.
For the compound `CCNC(=O)c1cc2c(cc1F)CC1C(=O)N(c3cnc(C#N)c(C(F)(F)F)c3)C(=S)N1C2` (stereo unspecified), the IC50 in the data set on DU-145 worked out at 91.4 µM; with LNCaP [1] it was 32.3 µM.
With `CS(=O)(=O)Nc1ccc2c(c1)N1C(=S)N(c3cnc(C#N)c(C(F)(F)F)c3)C(=O)C1CC2` (stereo unspecified), the IC50 with DU-145 and in the data set with LNCaP [1] was greater than 100 µM throughout.
With `CCCCS(=O)(=O)Nc1cc2c(cc1F)CC1C(=O)N(c3cnc(C#N)c(C(F)(F)F)c3)C(=S)N1C2` (stereo unspecified), the IC50 was greater than 100 µM with DU-145 and 102 µM with LNCaP [1].
In the same order, the values of `CCCNC(=O)c1ccc2c(c1)CN1C(=S)N(c3cnc(C#N)c(C(F)(F)F)c3)C(=O)C1C2` (stereo unspecified) are 90.4 µM and 18.1 µM.
On the same counts, the results for `CNC(=O)c1ccc2c(c1)CN1C(=S)N(c3cnc(C#N)c(C(F)(F)F)c3)C(=O)C1C2` (stereo unspecified) are 83.6 µM and 36.7 µM.
For the compound `CCC(=O)Nc1ccc2c(c1)N1C(=S)N(c3cnc(C#N)c(C(F)(F)F)c3)C(=O)C1CC2` (stereo unspecified), the IC50 with DU-145 was greater than 100 µM; in the data set with LNCaP [1], 48.8 µM.
In the same order, the values of `CCNC(=O)c1ccc2c(c1)CN1C(=S)N(c3cnc(C#N)c(C(F)(F)F)c3)C(=O)C1C2` (stereo unspecified) are 53.2 µM and 29.3 µM.
On the same counts, the results for `CCOC(=O)Nc1ccc2c(c1)CCC1C(=O)N(c3cnc(C#N)c(C(F)(F)F)c3)C(=S)N21` (stereo unspecified) are greater than 100 µM and 23.7 µM.
On the same counts, the results for `CCCC(=O)Nc1ccc2c(c1)N1C(=S)N(c3cnc(C#N)c(C(F)(F)F)c3)C(=O)C1CC2` (stereo unspecified) are 97.8 µM and 46 µM.
For the compound `CCCNC(=O)c1cc2c(cc1F)CC1C(=O)N(c3cnc(C#N)c(C(F)(F)F)c3)C(=S)N1C2` (stereo unspecified), the results for the IC50 with DU-145 and in the data set with LNCaP [1] were 92.5 µM and 20.1 µM, respectively.
In the same order, the values of `N#Cc1ncc(N2C(=O)C3Cc4ccc(C(=O)NCCO)cc4CN3C2=S)cc1C(F)(F)F` (stereo unspecified) are 83.9 µM and 29.1 µM.
On the same counts, the results for `CC(=O)Nc1cc2c(cc1F)CC1C(=O)N(c3cnc(C#N)c(C(F)(F)F)c3)C(=S)N1C2` (stereo unspecified) are greater than 100 µM and 28.3 µM.
As to `N#Cc1ncc(N2C(=O)C3Cc4cc(F)c([N+](=O)[O-])cc4CN3C2=S)cc1C(F)(F)F` (stereo unspecified), the results for the IC50 in the data set on DU-145 and with LNCaP [1] were 83.4 µM and 29 µM, respectively.
For the compound `CC(CO)NC(=O)c1cc2c(cc1F)CC1C(=O)N(c3cnc(C#N)c(C(F)(F)F)c3)C(=S)N1C2` (stereo unspecified), the results for the half-inhibitory concentration (IC50) in the data set on DU-145 and in the data set with LNCaP [1] were 71.3 µM and 34.2 µM, respectively.
`CCCCS(=O)(=O)Nc1ccc2c(c1)CCC1C(=O)N(c3cnc(C#N)c(C(F)(F)F)c3)C(=S)N21` (stereo unspecified): the IC50 in the data set on DU-145 came to 90.1 µM; with LNCaP [1] it was 54.7 µM.
On the same counts, the results for `COc1ccc2c(c1)CN1C(=S)N(c3cnc(C#N)c(C(F)(F)F)c3)C(=O)C1C2` (stereo unspecified) are greater than 100 µM and 25.9 µM.
On the same counts, the results for `CCCCOc1ccc2c(c1)CN1C(=S)N(c3cnc(C#N)c(C(F)(F)F)c3)C(=O)C1C2` (stereo unspecified) are greater than 100 µM and 20 µM.
With `N#Cc1ncc(N2C(=O)C3Cc4cc(Br)c(O)c(Br)c4CN3C2=S)cc1C(F)(F)F` (stereo unspecified), the IC50 in the data set with DU-145 was found to be 81.1 µM; in the data set with LNCaP [1] it was 60.4 µM.
Take `N#Cc1ncc(N2C(=O)C3Cc4cc(F)c(N)cc4CN3C2=S)cc1C(F)(F)F` (stereo unspecified): the IC50 with DU-145 was greater than 100 µM; with LNCaP [1], 32.1 µM.
On the same counts, the results for `N#Cc1ncc(N2C(=O)C3Cc4cc(F)c(C(=O)O)cc4CN3C2=S)cc1C(F)(F)F` (stereo unspecified) are greater than 100 µM and greater than 100 µM.
In the same order, the values of `CCOC(=O)Nc1ccc2c(c1)CN1C(=S)N(c3cnc(C#N)c(C(F)(F)F)c3)C(=O)C1C2` (stereo unspecified) are greater than 100 µM and 12.2 µM.
Consider `CCOC(=O)CCCOc1ccc2c(c1)CN1C(=S)N(c3cnc(C#N)c(C(F)(F)F)c3)C(=O)C1C2` (stereo unspecified), for which the 50% inhibitory concentration (IC50) in the data set on DU-145 is greater than 100 µM; with LNCaP [1] it was 17 µM.
On the same counts, the results for `CCC(=O)Nc1ccc2c(c1)CCC1C(=O)N(c3cnc(C#N)c(C(F)(F)F)c3)C(=S)N21` (stereo unspecified) are greater than 100 µM and 39.9 µM.
In the same order, the values of `N#Cc1ncc(N2C(=O)C3Cc4cc(F)c(C(=O)NC5CCCCC5)cc4CN3C2=S)cc1C(F)(F)F` (stereo unspecified) are 67.6 µM and 84.7 µM.
